O=C(O)[C@H]1O[C@@H](Oc2cc3oc(-c4ccccc4)cc(=O)c3c(O)c2O)[C@H](O)[C@@H](O)[C@@H]1O
solubility (mole fraction)
Details	278.15 K	283.15 K	288.15 K	293.15 K	298.15 K	303.15 K	308.15 K	313.15 K	318.15 K
in ethanol	0.000171	0.000176	0.000181	0.000186	0.000191	0.000196	0.000202	0.000205	0.000212
in isopropanol	0.000676	0.000855	0.00112	0.00145	0.00191	0.00246	0.00314	0.00392	0.00472
in methanol	8.11e-05	9.11e-05	0.000101	0.000113	0.000127	0.000143	0.000157	0.000171	0.000192
in n-propanol	0.000768	0.00101	0.00133	0.00171	0.00224	0.00289	0.00363	0.00451	0.00551
in water	2.38e-06	3.13e-06	4.35e-06	5.8e-06	7.49e-06	9.78e-06	1.27e-05	1.59e-05	2.03e-05

Source: BigSolDB 2.1
